The target in assay [1] is T1, Protein RecA (Mycobacterium tuberculosis, UniProt P9WHJ3).
T1 sequence (P9WHJ3 whole entry): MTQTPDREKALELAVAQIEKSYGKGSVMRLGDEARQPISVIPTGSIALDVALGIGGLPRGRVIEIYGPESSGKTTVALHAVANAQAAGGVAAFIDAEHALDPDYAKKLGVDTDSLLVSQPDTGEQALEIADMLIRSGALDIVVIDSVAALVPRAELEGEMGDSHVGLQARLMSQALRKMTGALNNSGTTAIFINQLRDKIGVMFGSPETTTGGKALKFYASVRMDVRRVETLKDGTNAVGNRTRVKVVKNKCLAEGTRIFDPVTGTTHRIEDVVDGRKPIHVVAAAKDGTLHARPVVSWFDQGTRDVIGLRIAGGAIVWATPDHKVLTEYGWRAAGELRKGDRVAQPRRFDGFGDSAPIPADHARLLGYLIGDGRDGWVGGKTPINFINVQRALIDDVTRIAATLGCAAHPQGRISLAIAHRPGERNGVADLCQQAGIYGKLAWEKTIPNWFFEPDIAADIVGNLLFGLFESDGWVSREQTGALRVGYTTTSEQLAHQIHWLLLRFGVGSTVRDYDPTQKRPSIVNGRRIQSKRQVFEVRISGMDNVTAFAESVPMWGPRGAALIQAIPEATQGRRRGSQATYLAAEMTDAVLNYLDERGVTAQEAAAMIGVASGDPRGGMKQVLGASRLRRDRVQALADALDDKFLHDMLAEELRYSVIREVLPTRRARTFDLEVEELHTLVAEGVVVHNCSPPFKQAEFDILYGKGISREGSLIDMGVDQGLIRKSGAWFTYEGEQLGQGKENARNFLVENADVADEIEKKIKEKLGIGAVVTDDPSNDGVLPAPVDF
As to the kind of experiment: Fluorescence Cell-Free Homogeneous Dose Retest to Identify Inhibitors of RecA-Intein Splicing Activity. [Related pubchem assays (depositor defined):AID2097, AID2223, AID489010, AID492950]. It counts as functional.

Assay [2] concerns the target DNA damage-inducible transcript 3 protein (Mus musculus, UniProt P35639). In kind it is functional, Cricetulus griseus.
Assay [3] deals with T1, Protein RecA. As to the kind of experiment: RecA Intein Measured in Biochemical System Using Plate Reader - 2047-02_Inhibitor_Dose_DryPowder_Activity. [Related pubchem assays (depositor defined):AID2223]. The arrangement: species or system Mycobacterium tuberculosis H37Rv.
Assay [4] is described as follows: Intein inhibitors as potential Tuberculosis drugs, a cytotoxicity screen. [Related pubchem assays (depositor defined):AID2221, AID2223, AID434968, AID435010, AID449749, AID449750, AID489010]. It counts as functional.
In assay [5] the target is T2, Heat shock factor protein 1 (Mus musculus, UniProt P38532).
T2 sequence (P38532 whole entry): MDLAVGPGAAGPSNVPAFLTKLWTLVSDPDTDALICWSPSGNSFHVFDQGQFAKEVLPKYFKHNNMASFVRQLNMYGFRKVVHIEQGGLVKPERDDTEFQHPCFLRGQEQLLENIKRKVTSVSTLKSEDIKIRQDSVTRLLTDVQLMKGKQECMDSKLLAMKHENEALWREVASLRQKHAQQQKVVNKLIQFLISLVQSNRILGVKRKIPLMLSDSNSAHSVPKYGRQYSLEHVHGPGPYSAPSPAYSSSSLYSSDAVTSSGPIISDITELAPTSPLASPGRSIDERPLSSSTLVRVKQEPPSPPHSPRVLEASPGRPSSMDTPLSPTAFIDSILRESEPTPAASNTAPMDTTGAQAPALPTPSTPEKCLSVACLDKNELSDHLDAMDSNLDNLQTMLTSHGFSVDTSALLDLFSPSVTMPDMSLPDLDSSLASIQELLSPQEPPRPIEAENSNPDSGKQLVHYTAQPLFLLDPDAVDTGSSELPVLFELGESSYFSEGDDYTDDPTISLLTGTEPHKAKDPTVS
As to the kind of experiment: decrease of HSF1-responsive luciferase luminescence – cell-based, NIH3T3, dose retest, confirmation (AID 2382).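 Further: NIH3T3 fibroblasts with HSF1-driven luciferase reporter stressed by proteasome inhibitor MG132; luminescence from HSF1-driven luciferase expression after 8 hours of MG132 stress.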 It counts as functional.

For assay [6], the target named is T3, Replicative DNA helicase DnaB (Mycobacterium tuberculosis, UniProt P9WMR3).
T3 sequence (P9WMR3 whole entry): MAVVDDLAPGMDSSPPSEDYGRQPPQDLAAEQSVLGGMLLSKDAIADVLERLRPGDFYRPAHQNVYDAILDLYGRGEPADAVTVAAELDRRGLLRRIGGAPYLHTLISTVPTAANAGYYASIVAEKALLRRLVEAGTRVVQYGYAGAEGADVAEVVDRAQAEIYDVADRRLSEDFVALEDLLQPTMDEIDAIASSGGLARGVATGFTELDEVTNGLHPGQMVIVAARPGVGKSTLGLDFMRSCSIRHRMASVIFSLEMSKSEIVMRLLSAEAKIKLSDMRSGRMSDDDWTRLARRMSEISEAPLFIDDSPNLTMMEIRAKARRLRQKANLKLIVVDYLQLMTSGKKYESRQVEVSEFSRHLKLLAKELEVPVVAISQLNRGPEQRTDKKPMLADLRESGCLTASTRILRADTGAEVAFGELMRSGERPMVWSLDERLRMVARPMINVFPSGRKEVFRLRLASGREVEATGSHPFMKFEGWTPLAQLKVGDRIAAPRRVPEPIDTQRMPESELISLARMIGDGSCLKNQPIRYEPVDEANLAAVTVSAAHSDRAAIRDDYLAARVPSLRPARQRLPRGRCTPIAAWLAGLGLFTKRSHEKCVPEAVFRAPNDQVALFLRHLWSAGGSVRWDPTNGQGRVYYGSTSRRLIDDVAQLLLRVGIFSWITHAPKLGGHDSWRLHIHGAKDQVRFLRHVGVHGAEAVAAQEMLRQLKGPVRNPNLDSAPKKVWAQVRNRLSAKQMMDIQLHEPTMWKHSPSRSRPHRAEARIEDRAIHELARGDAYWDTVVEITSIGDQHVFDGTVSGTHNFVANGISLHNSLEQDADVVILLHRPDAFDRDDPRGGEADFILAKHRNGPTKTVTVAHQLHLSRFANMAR
As to the kind of experiment: DnaB Intein secondary assay Measured in Biochemical System Using Plate Reader - 2047-04_Inhibitor_Dose_DryPowder_Activity. [Related pubchem assays (depositor defined):AID2223].

Assay [7] has as its target T1, Protein RecA. As to the kind of experiment: GFP-RecA MOA-DTT Measured in Biochemical System Using Plate Reader - 2047-05_Inhibitor_Dose_DryPowder_Activity. [Related pubchem assays (depositor defined):AID2223]. The arrangement: species or system Mycobacterium tuberculosis H37Rv.
The nature of assay [8]: compounds quenching green fluorescent protein signal – biochemical, plate reader, dry powder, artefact control, dose response (AID 493243).
Assay [9] deals with T3, Replicative DNA helicase DnaB. As to the kind of experiment: DnaB intein splicing inhibitors, dose response, biochemical, cell-free fluorescence (AID 449749). It counts as functional.
Assay [10] has as its target T4, SUMO-activating enzyme (Homo sapiens, UniProt Q9UBT2). As to the kind of experiment: blockers of UBC9-mediated SUMO conjugation – biochemical, AlphaScreen, SUMOylation inhibitor project, confirmation (AID 2018). It counts as functional. On the technique in general: Alpha assays give light when donor and acceptor beads are brought close together.
The nature of assay [11]: cells. It counts as functional, cell-based.
The target of assay [12] is T4, SUMO-activating enzyme. As to the kind of experiment: blockers of SAE1/SAE2–UBC9 SUMO transfer – biochemical, HTRF, uHTS, primary screen (AID 2006). In kind it is protein-complex assay. Background: In TR-FRET formats the signal depends on donor and acceptor labels being close together.
Assay [13] can be described thus: cells. In kind it is functional, cell-based. This is another data set of the same source.
A short description of assay [14]: Luminescence Cell-Based Dose Retest to Confirm Inhibitors of Cancer Stem Cells. [Related pubchem assays (depositor defined):AID2717, AID2721]. The settings on record: Homo sapiens. In kind it is functional.

The structures appear in SMILES notation. Calls of active or inactive are those of the source. Unless noted, the calls are words filed in the database; no cut-off is given here.
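Wherever CC50 is given: cells exposed to compound for 72 hours before luminescence readout.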

T4 sequence (Q9UBE0 whole entry): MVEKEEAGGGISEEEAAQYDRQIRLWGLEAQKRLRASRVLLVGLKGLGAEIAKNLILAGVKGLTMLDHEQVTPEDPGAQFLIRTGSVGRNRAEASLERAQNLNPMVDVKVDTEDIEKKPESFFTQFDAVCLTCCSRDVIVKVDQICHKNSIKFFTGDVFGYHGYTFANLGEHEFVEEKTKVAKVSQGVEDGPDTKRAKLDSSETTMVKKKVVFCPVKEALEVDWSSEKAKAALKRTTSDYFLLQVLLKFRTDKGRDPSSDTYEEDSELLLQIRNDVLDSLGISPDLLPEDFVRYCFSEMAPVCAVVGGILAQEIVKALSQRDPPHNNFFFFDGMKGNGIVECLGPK
T4 sequence (Q9UBT2 whole entry): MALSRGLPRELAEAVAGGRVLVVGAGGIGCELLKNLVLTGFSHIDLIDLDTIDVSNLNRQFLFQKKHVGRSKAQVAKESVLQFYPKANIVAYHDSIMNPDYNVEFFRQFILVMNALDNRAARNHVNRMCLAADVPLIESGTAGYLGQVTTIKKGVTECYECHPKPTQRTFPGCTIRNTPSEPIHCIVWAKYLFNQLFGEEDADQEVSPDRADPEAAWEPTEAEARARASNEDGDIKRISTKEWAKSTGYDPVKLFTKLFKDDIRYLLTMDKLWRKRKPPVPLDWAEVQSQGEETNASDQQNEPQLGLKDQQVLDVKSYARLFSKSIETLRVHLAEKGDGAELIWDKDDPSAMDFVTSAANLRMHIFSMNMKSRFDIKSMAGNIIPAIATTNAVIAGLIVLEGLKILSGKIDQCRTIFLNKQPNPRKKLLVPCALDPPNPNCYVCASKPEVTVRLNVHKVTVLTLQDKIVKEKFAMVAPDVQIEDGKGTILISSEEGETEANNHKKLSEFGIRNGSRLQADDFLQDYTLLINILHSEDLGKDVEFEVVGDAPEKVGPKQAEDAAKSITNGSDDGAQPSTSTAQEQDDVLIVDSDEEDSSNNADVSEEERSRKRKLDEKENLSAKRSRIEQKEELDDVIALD
DNA damage-inducible transcript 3 protein, sequence (P35639 whole entry): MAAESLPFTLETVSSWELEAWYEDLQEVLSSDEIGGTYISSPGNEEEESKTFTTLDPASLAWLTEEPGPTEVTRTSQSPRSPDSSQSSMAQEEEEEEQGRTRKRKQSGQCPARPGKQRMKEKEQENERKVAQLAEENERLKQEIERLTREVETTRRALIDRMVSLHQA

With `O=C(CCl)Nc1cn(-c2ccccc2)nc1-c1ccc(F)cc1`, the EC50 in [1] is 2.77 µM (active); in assay [5], 6.91 µM (active). Besides, in [2], the “Absolute IC50 (CHOP)” value amounted to 10 µM. In addition, the AC50 in assay [3] was 8.58 µM (active); in [6], 101 µM (active); in [7] it was 29.4 µM (active); in [8], 262 µM (active); in [9] it was 2.77 µM (active). Moreover, in assay [4], the CC50 is 6.59 µM (active).

For the compound `C/C(=N\OCc1nc2ccccc2c(=O)n1/N=C/c1cc([N+](=O)[O-])ccc1O)c1ccccc1`, the IC50 in [10] was 5.22 µM (active); in [12], 41.1 µM (active). In addition, the EC50 was 245 µM (active) in [11] and > 350 µM (not active) in assay [13]. Also, the AC50 in assay [14] was 7.33 µM (active).

By EC50 is commonly meant the concentration giving half of the maximal effect. Usually AC50 stands for the midpoint of the concentration-response curve, whichever way the signal moves. A word on the CC50: it is the concentration at which the toxic effect on the cells reaches its halfway point. A word on the IC50: it is the concentration needed to halve the response being measured.

For the origin of these results see ChEMBL document CHEMBL1201862, “PubChem BioAssay data set” (2004).
